From the NIST ThermoML archive (doi:10.1016/j.jct.2014.04.016)
Values joined by “and” are separate entries in the source; they are usually repeats but may differ in a detail not shown here. Equal entries are not always repeated.

Experiment: xn = mol fraction of the nth substance listed
Conditions: 100 kPa; for electrical conductivity: Alternating current cell with electrodes; for viscosity: Concentric cylinders viscometry; for mass density: Vibrating tube method

CCCCCCCCOS(=O)(=O)[O-].CCn1cc[n+](C)c1 [1-ethyl-3-methylimidazolium octyl sulfate] + O
Conditions | electrical conductivity | mass density | viscosity
287.1 K, Liquid, x1 = 0.1402 | – | 1076.8 kg/m3 | –
287.1 K, Liquid, x1 = 0.1605 | – | 1079.2 kg/m3 | –
287.1 K, Liquid, x1 = 0.2632 | – | 1088.7 kg/m3 | –
287.1 K, Liquid, x1 = 0.3076 | 0.375 S/m and 0.377 S/m | 1091.2 kg/m3 | 169.3 mPa·s
287.6 K, Glass, x1 = 0.2632 | 0.469 S/m | – | 10720 mPa·s and 11920 mPa·s
287.6 K, Liquid, x1 = 0.2632 | – | 1088.5 kg/m3 and 1088.8 kg/m3 | –
288.1 K, Glass, x1 = 0.1402 | – | – | 1042 mPa·s
288.1 K, Glass, x1 = 0.1605 | – | – | 13780 mPa·s and 15800 mPa·s
288.1 K, Glass, x1 = 0.1766 | 0.844 S/m and 0.846 S/m | – | –
288.1 K, Glass, x1 = 0.2119 | 0.682 S/m and 0.681 S/m | – | –
288.1 K, Glass, x1 = 0.2632 | 0.48 S/m and 0.478 S/m | – | 8600 mPa·s
288.1 K, Liquid, x1 = 0.0401 | 1.7 S/m | – | –
288.1 K, Liquid, x1 = 0.0586 | 1.67 S/m | – | –
288.1 K, Liquid, x1 = 0.0803 | 1.51 S/m | – | –
288.1 K, Liquid, x1 = 0.1197 | – | 1072.5 kg/m3 | 78.76 mPa·s
288.1 K, Liquid, x1 = 0.1402 | 1.03 S/m | 1076 kg/m3 | –
288.1 K, Liquid, x1 = 0.1605 | 0.932 S/m and 0.934 S/m | 1078.8 kg/m3 and 1078.7 kg/m3 | –
288.1 K, Liquid, x1 = 0.2632 | – | 1088.3 kg/m3 | –
288.1 K, Liquid, x1 = 0.3076 | 0.389 S/m and 0.388 S/m | 1090.5 kg/m3 | 159.4 mPa·s
288.1 K, Liquid, x1 = 0.3555 | 0.293 S/m and 0.294 S/m | 1092.7 kg/m3 | 183.7 mPa·s
288.1 K, Liquid, x1 = 0.4108 | 0.24 S/m and 0.237 S/m | 1094.5 kg/m3 | 206.8 mPa·s
288.1 K, Liquid, x1 = 0.4688 | 0.166 S/m and 0.159 S/m | – | –
288.1 K, Liquid, x1 = 0.5001 | 0.15 S/m | – | –
288.6 K, Glass, x1 = 0.2632 | 0.485 S/m | – | –
289.1 K, Glass, x1 = 0.1402 | – | – | 396.1 mPa·s
289.1 K, Glass, x1 = 0.1605 | – | – | 8364 mPa·s and 8406 mPa·s
289.1 K, Glass, x1 = 0.1766 | 0.868 S/m and 0.871 S/m | – | –
289.1 K, Glass, x1 = 0.2632 | 0.489 S/m | – | 3435 mPa·s
289.1 K, Liquid, x1 = 0.1197 | 1.21 S/m | – | –
289.1 K, Liquid, x1 = 0.1402 | 1.06 S/m | 1074.9 kg/m3 | –
289.1 K, Liquid, x1 = 0.1605 | 0.964 S/m and 0.963 S/m | 1078.4 kg/m3 | –
289.1 K, Liquid, x1 = 0.2632 | 0.494 S/m | 1087.8 kg/m3 | –
289.1 K, Liquid, x1 = 0.3076 | – | 1089.8 kg/m3 | 150 mPa·s
289.6 K, Glass, x1 = 0.2632 | – | – | 1082 mPa·s
289.6 K, Liquid, x1 = 0.2632 | 0.503 S/m | 1087.9 kg/m3 | –
290.1 K, Glass, x1 = 0.1402 | – | – | 213.6 mPa·s
290.1 K, Glass, x1 = 0.1605 | – | – | 5299 mPa·s and 4500 mPa·s
290.1 K, Glass, x1 = 0.1766 | 0.895 S/m and 0.899 S/m | – | –
290.1 K, Glass, x1 = 0.2119 | 0.728 S/m | – | –
290.1 K, Liquid, x1 = 0.1402 | – | 1074.2 kg/m3 | –
290.1 K, Liquid, x1 = 0.1605 | – | 1077.9 kg/m3 and 1078 kg/m3 | –
290.1 K, Liquid, x1 = 0.2632 | 0.511 S/m | – | –
290.1 K, Liquid, x1 = 0.3076 | – | 1089.1 kg/m3 | 141.3 mPa·s
291.1 K, Glass, x1 = 0.1402 | – | – | 122.8 mPa·s
291.1 K, Glass, x1 = 0.1605 | – | – | 2756 mPa·s and 2752 mPa·s
291.1 K, Glass, x1 = 0.1766 | 0.924 S/m and 0.925 S/m | – | –
291.1 K, Glass, x1 = 0.2119 | 0.759 S/m and 0.757 S/m | – | –
291.1 K, Liquid, x1 = 0.0803 | 1.63 S/m | – | –
291.1 K, Liquid, x1 = 0.1402 | 1.12 S/m | 1073.7 kg/m3 | –
291.1 K, Liquid, x1 = 0.1605 | 1.02 S/m | 1077.5 kg/m3 | –
291.1 K, Liquid, x1 = 0.2632 | 0.527 S/m | 1085.5 kg/m3 | 118.9 mPa·s
291.1 K, Liquid, x1 = 0.3076 | 0.441 S/m and 0.442 S/m | 1088.1 kg/m3 | 133.1 mPa·s
291.1 K, Liquid, x1 = 0.3555 | 0.332 S/m | – | –
291.1 K, Liquid, x1 = 0.4108 | 0.271 S/m | – | –
291.1 K, Liquid, x1 = 0.4688 | 0.192 S/m | – | –
292.1 K, Glass, x1 = 0.1605 | – | – | 1353 mPa·s and 597.3 mPa·s
292.1 K, Glass, x1 = 0.1766 | 0.951 S/m and 0.953 S/m | – | –
292.1 K, Glass, x1 = 0.2119 | 0.779 S/m and 0.781 S/m | – | –
292.1 K, Liquid, x1 = 0.1402 | – | 1073.2 kg/m3 | 80.8 mPa·s
292.1 K, Liquid, x1 = 0.1605 | – | 1076.9 kg/m3 and 1076.7 kg/m3 | –
292.1 K, Liquid, x1 = 0.2632 | 0.543 S/m | – | –
293.1 K, Glass, x1 = 0.1605 | – | – | 589.1 mPa·s and 232.2 mPa·s
293.1 K, Glass, x1 = 0.1766 | 0.977 S/m and 0.979 S/m | – | –
293.1 K, Glass, x1 = 0.2119 | 0.805 S/m | – | –
293.1 K, Liquid, x1 = 0.0401 | 1.92 S/m | – | –
293.1 K, Liquid, x1 = 0.0586 | 1.91 S/m | – | –
293.1 K, Liquid, x1 = 0.0803 | 1.72 S/m | – | –
293.1 K, Liquid, x1 = 0.1197 | 1.36 S/m | – | 59.82 mPa·s
293.1 K, Liquid, x1 = 0.1402 | 1.19 S/m | – | 69.89 mPa·s
293.1 K, Liquid, x1 = 0.1605 | 1.08 S/m | – | –
293.1 K, Liquid, x1 = 0.2119 | 0.804 S/m | – | –
293.1 K, Liquid, x1 = 0.2632 | 0.564 S/m and 0.562 S/m | – | 106.4 mPa·s
293.1 K, Liquid, x1 = 0.3076 | 0.477 S/m and 0.479 S/m | – | 117.6 mPa·s
293.1 K, Liquid, x1 = 0.3555 | 0.357 S/m and 0.359 S/m | – | –
293.1 K, Liquid, x1 = 0.4108 | 0.294 S/m and 0.293 S/m | – | –
293.1 K, Liquid, x1 = 0.4688 | 0.214 S/m | – | –
293.1 K, Liquid, x1 = 0.5001 | 0.19 S/m and 0.191 S/m | – | –
